Measurements taken from ChEMBL document CHEMBL2424644, “Synthesis and antiproliferative evaluation of novel benzoimidazole-contained oxazole-bridged analogs of combretastatin A-4” (Eur J Med Chem, 2013).

Experiments:
HepG2 = assay: Cytotoxicity against human HepG2 cells assessed as growth inhibition after 72 hrs by MTT assay; assay type: functional, cell-based; details: HepG2, 72 h
HT-29 [1] = assay: Cytotoxicity against human HT-29 cells assessed as growth inhibition after 72 hrs by MTT assay; assay type: functional, cell-based; details: HT-29, 72 h
A549 = assay: Cytotoxicity against human A549 cells assessed as growth inhibition after 72 hrs by MTT assay; assay type: functional, cell-based; details: A549, 72 h
MX1 [2] = assay: Cytotoxicity against taxol-resistant human MX1 cells assessed as growth inhibition after 72 hrs by MTT assay; assay type: functional, cell-based; details: MX1, 72 h
BXPC-3 [3] = assay: Cytotoxicity against human BxPC3 cells assessed as growth inhibition after 72 hrs by MTT assay; assay type: functional, cell-based; details: BXPC-3, 72 h
KB [4] = assay: Cytotoxicity against vincristine-resistant human KB cells assessed as growth inhibition after 72 hrs by MTT assay; assay type: functional, cell-based
MX1 [5] = assay: Cytotoxicity against human MX1 cells assessed as growth inhibition after 72 hrs by MTT assay; assay type: functional, cell-based; details: MX1, 72 h
MCF7 [6] = assay: Cytotoxicity against human MCF7 cells assessed as growth inhibition after 72 hrs by MTT assay; assay type: functional, cell-based; details: MCF7, 72 h
KB [7] = assay: Cytotoxicity against human KB cells assessed as growth inhibition after 72 hrs by MTT assay; assay type: functional, cell-based
HT-29 [8] = assay: Potency index, ratio of combretastatin A-4 IC50 to compound IC50 for human HT-29 cells; assay type: functional
HT-29 [9] = assay: Cell cycle arrest in human HT-29 cells assessed as accumulation at G0/G1 phase at 100 nM after 24 hrs by propidium iodide staining-based flow cytometric analysis (reference value: 68.24%); assay type: functional
HT-29 [10] = assay: Cell cycle arrest in human HT-29 cells assessed as accumulation at S phase at 12.5 nM after 24 hrs by propidium iodide staining-based flow cytometric analysis (reference value: 24.39%); assay type: functional
HT-29 [11] = assay: Cell cycle arrest in human HT-29 cells assessed as accumulation at G2/M phase after 24 hrs by propidium iodide staining-based flow cytometric analysis; assay type: functional
HT-29 [12] = assay: Cell cycle arrest in human HT-29 cells assessed as accumulation at S phase at 50 nM after 24 hrs by propidium iodide staining-based flow cytometric analysis (reference value: 24.39%); assay type: functional
BXPC-3 [13] = assay: Potency index, ratio of vincristine IC50 to compound IC50 for human BxPC3 cells; assay type: functional
H22 [14] = assay: Antitumor activity against mouse H22 cells allografted in KM mouse assessed as tumor growth inhibition at 20 mg/kg, ip administered on day 1 measured on day 8 relative to control; assay type: functional; details: route intraperitoneal, read-out: TGI
HT-29 [15] = assay: Cell cycle arrest in human HT-29 cells assessed as accumulation at G2/M phase at 50 nM after 24 hrs by propidium iodide staining-based flow cytometric analysis (reference value: 7.37%); assay type: functional
Mus musculus [16] = assay: Toxicity in KM mouse allografted with mouse H22 cells assessed as body weight at 15 mg/kg, ip administered on day 1 and 4 measured on day 8 (reference value: 30 +/- 3.24 g); assay type: organism-based; design: dose 15 mg/kg, route intraperitoneal; details: in vivo
Mus musculus [17] = assay: Toxicity in KM mouse allografted with mouse H22 cells assessed as body weight at 10 mg/kg, ip administered on day 1, 3, 5, 7 measured on day 8 (reference value: 30 +/- 3.24 g); assay type: organism-based; design: dose 10 mg/kg, route intraperitoneal; details: in vivo
HT-29 [18] = assay: Cell cycle arrest in human HT-29 cells assessed as accumulation at S phase at 100 nM after 24 hrs by propidium iodide staining-based flow cytometric analysis (reference value: 24.39%); assay type: functional
HT-29 [19] = assay: Cell cycle arrest in human HT-29 cells assessed as accumulation at G2/M phase at 12.5 nM after 24 hrs by propidium iodide staining-based flow cytometric analysis (reference value: 7.37%); assay type: functional
HT-29 [20] = assay: Cell cycle arrest in human HT-29 cells assessed as accumulation at G0/G1 phase at 12.5 nM after 24 hrs by propidium iodide staining-based flow cytometric analysis (reference value: 68.24%); assay type: functional
Tubulin = assay: Inhibition of tubulin (unknown origin) polymerization measured for 60 mins; assay type: protein-complex assay, Homo sapiens
MCF7 [21] = assay: Potency index, ratio of combretastatin A-4 IC50 to compound IC50 for human MCF7 cells; assay type: functional
H22 [22] = assay: Antitumor activity against mouse H22 cells allografted in KM mouse assessed as tumor growth inhibition at 7.5 mg/kg, ip administered on day 1 to 7 measured on day 8 relative to control; assay type: functional; details: route intraperitoneal, read-out: TGI
H22 [23] = assay: Antitumor activity against mouse H22 cells allografted in KM mouse assessed as tumor growth inhibition at 10 mg/kg, ip administered on day 1, 3, 5, 7 measured on day 8 relative to control; assay type: functional; details: route intraperitoneal, read-out: TGI
Mus musculus [24] = assay: Toxicity in KM mouse allografted with mouse H22 cells assessed as body weight at 7.5 mg/kg, ip administered on day 1 to 7 measured on day 8 (reference value: 30 +/- 3.24 g); assay type: organism-based; design: dose 7.5 mg/kg, route intraperitoneal; details: in vivo
H22 [25] = assay: Antitumor activity against mouse H22 cells allografted in KM mouse assessed as tumor growth inhibition at 15 mg/kg, ip administered on day 1 and 4 measured on day 8 relative to control; assay type: functional; details: route intraperitoneal, read-out: TGI
HT-29 [26] = assay: Cell cycle arrest in human HT-29 cells assessed as accumulation at G2/M phase at 100 nM after 24 hrs by propidium iodide staining-based flow cytometric analysis (reference value: 7.37%); assay type: functional
Mus musculus [27] = assay: Toxicity in KM mouse allografted with mouse H22 cells assessed as body weight at 20 mg/kg, ip administered on day 1 measured on day 8 (reference value: 30 +/- 3.24 g); assay type: organism-based; design: dose 20 mg/kg, route intraperitoneal; details: in vivo
HT-29 [28] = assay: Cell cycle arrest in human HT-29 cells assessed as accumulation at G0/G1 phase at 50 nM after 24 hrs by propidium iodide staining-based flow cytometric analysis (reference value: 68.24%); assay type: functional

In the case of COC(=O)n1cnc2c(-c3ocnc3-c3cc(OC)c(OC)c(OC)c3)ccc(OC)c21, the IC50 (HepG2) is reported as 0.025 µM, the IC50 (HT-29 [1]) is reported as 0.011 µM and the IC50 (A549) is reported as 0.003 µM. For the same molecule, the IC50 (MX1 [2]) was 4.86 µM, the IC50 (BXPC-3 [3]) was 0.045 µM and the IC50 (KB [4]) was 0.053 µM. The IC50 (MX1 [5]) was 0.241 µM, the IC50 (MCF7 [6]) was 0.047 µM and the IC50 (KB [7]) was 0.107 µM.

COc1cc(-c2ncoc2-c2ccc(OC)c3c2ncn3CC(=O)O)cc(OC)c1OC was tested, and the IC50 (HepG2) was greater than 5 µM, the IC50 (HT-29 [1]) was greater than 5 µM and the IC50 (A549) was greater than 5 µM. For the same molecule, the IC50 (BXPC-3 [3]) was greater than 5 µM and the IC50 (MCF7 [6]) was greater than 5 µM.

In the case of COc1cc(-c2ncoc2-c2ccc(OC)c3c2ncn3CCCO)cc(OC)c1OC, the IC50 (HepG2) is reported as 0.41 µM, the IC50 (HT-29 [1]) is reported as 2.22 µM and the IC50 (MX1 [2]) is reported as 21.1 µM. It also gave an IC50 (KB [4]) greater than 10 µM, an IC50 (MX1 [5]) greater than 10 µM and an IC50 (MCF7 [6]) of 2.11 µM. For the same molecule, the IC50 (KB [7]) was 0.406 µM.

With COc1cc(-c2ncoc2-c2ccc(OC)c3ncn(CCCO)c23)cc(OC)c1OC the IC50 (HepG2) was 0.31 µM, the IC50 (HT-29 [1]) was 0.29 µM and the IC50 (MX1 [2]) was greater than 10 µM. It also gave an IC50 (KB [4]) greater than 10 µM, an IC50 (MX1 [5]) of 3.78 µM and an IC50 (MCF7 [6]) of 0.5 µM. For the same molecule, the IC50 (KB [7]) was 0.346 µM.

COc1cc(-c2ncoc2-c2ccc(OC)c3c2ncn3CC#N)cc(OC)c1OC gave an IC50 (HepG2) of 0.077 µM, an IC50 (HT-29 [1]) of 0.19 µM and an IC50 (A549) of 2.6 µM. For the same molecule, the IC50 (BXPC-3 [3]) was 2.19 µM and the IC50 (MCF7 [6]) was 0.089 µM.

With COC(=O)n1cnc2c(OC)ccc(-c3ocnc3-c3cc(OC)c(OC)c(OC)c3)c21 the IC50 (HepG2) was 0.02 µM, the IC50 (HT-29 [1]) was 0.011 µM and the IC50 (A549) was 0.0038 µM. For the same molecule, the IC50 (MX1 [2]) was 0.565 µM, the IC50 (BXPC-3 [3]) was 0.042 µM and the IC50 (KB [4]) was 0.07 µM. The IC50 (MX1 [5]) was 0.393 µM, the IC50 (MCF7 [6]) was 0.017 µM and the IC50 (KB [7]) was 0.027 µM.

In the case of COc1cc(-c2ncoc2-c2ccc(OC)c3[nH]cnc23)cc(OC)c1OC, the IC50 (HT-29 [1]) is reported as 0.0084 µM, the “Ratio IC50” value (HT-29 [8]) is reported as 32 and the Activity (HT-29 [9]) is reported as 25.71%. The Activity (HT-29 [10]) was 24.97%, the Activity (HT-29 [11]) was “Dose-dependent effect” and the Activity (HT-29 [12]) was 34.83%. For the same molecule, the “Ratio IC50” value (BXPC-3 [13]) was 16, the inhibition in vivo at 20 mg/kg (H22 [14]) was 42% and the IC50 (MX1 [2]) was 0.249 µM. The Activity (HT-29 [15]) was 35.63%, the Activity (Mus musculus [16]) was 24.4 g and the Activity (Mus musculus [17]) was 28.4 g. It also gave an Activity (HT-29 [18]) of 30.04%, an Activity (HT-29 [19]) of 14.75% and an IC50 (BXPC-3 [3]) of 0.031 µM. For the same molecule, the Activity (HT-29 [20]) was 50.29%, the IC50 (Tubulin) was 0.39 µM and the IC50 (KB [4]) was 0.065 µM. The “Ratio IC50” value (MCF7 [21]) was 8, the inhibition in vivo at 7.5 mg/kg (H22 [22]) was 55% and the inhibition in vivo at 10 mg/kg (H22 [23]) was 52%. The Activity (Mus musculus [24]) was 25.5 g, the IC50 (MX1 [5]) was 0.397 µM and the IC50 (MCF7 [6]) was 0.025 µM. It also gave an inhibition in vivo at 15 mg/kg (H22 [25]) of 66%, an Activity (HT-29 [26]) of 44.25% and an Activity (Mus musculus [27]) of 30.4 g. It also gave an IC50 (KB [7]) of 0.016 µM and an Activity (HT-29 [28]) of 29.54%.

COc1cc(-c2ncoc2-c2ccc(OC)c3ncn(CC(=O)O)c23)cc(OC)c1OC showed an IC50 (HepG2) greater than 5 µM, an IC50 (HT-29 [1]) greater than 5 µM and an IC50 (A549) greater than 5 µM. It also gave an IC50 (BXPC-3 [3]) greater than 5 µM and an IC50 (MCF7 [6]) greater than 5 µM.

Work on COc1cc(-c2ncoc2-c2ccc(OC)c3ncn(CC(N)=O)c23)cc(OC)c1OC yielded an IC50 (HepG2) of 0.87 µM, an IC50 (HT-29 [1]) of 1.6 µM and an IC50 (A549) greater than 5 µM. The IC50 (BXPC-3 [3]) was 1.39 µM and the IC50 (MCF7 [6]) was 2.05 µM.

In the case of COc1cc(-c2ncoc2-c2ccc(OC)c3ncn(C)c23)cc(OC)c1OC, the IC50 (HepG2) is reported as 0.2 µM, the IC50 (HT-29 [1]) is reported as 0.052 µM and the IC50 (A549) is reported as 0.037 µM. It also gave an IC50 (BXPC-3 [3]) of 0.22 µM and an IC50 (MCF7 [6]) of 0.041 µM.
